{"source": "paper PMC2577671", "about": "“Evaluation of Dimebon in cellular model of Huntington's disease” (Molecular Neurodegeneration, 2008)", "assay_in_all_cases": "biochemical", "set-up_in_all_cases": "MDS Pharma Lead Profiling screen, binding assays, per cent inhibition, duplicate", "key": {"[1]": {"target": "T1, Adenosine A2A (Homo sapiens, UniProt P29274)", "T1 construct": "gene ADORA2A", "protocol": "(§1) The activity of Dimebon against selected set of biochemical targets was performed by MDS Pharma Services . The Dimebon was provided to MDS Pharma as dry powder, dissolved in DMSO and tested in 10 μM concentrations. The standard Lead Profiling + CYP450 screen was performed according to MDS Pharma specifications with additional custom-chosen targets added to the screen as indicated. To further understand potential mechanisms responsible for clinical effects of Dimebon, we evaluated Dimebon against a set of selected biochemical targets. Dimebon evaluation was performed by MDS Pharma Services . The standard Lead Profiling + CYP450 screen was performed with additional custom-selected targets added to the screen. The results of the screen obtained at 10 μM of Dimebon are provided as Additional File 3. […] Low affinity (50–60% inhibition) interactions were also observed for CYP450, 2C19 receptor, voltage-gated L-type Ca^2+ channel, Dopamine D4.2 receptor, and Serotonin 5-HT1 receptor. […] Supplementary file 1750-1326-3-15-S3.pdf: Additional file 3 The results of Dimebon screening against a selected set of biochemical targets. The complete results obtained by MDS Pharma with a selected list of biochemical targets using 10 μM of Dimebon as a probe. The Cat numbers refer to the MDS Pharma Services assay specification. The receptors and species are listed. Dimebon was tested at 10 μM concentratio in duplicate. The % inhibition by Dimebon is shown numerically and graphically for each receptor. Significant targets (defined as % inhibition > 50%) are highlighted in yellow. Click here for file"}, "[2]": {"target": "T2, Adrenergic beta2 (Homo sapiens, UniProt P07550)", "T2 construct": "gene ADRB2", "T2 sequence (P07550 whole entry)": "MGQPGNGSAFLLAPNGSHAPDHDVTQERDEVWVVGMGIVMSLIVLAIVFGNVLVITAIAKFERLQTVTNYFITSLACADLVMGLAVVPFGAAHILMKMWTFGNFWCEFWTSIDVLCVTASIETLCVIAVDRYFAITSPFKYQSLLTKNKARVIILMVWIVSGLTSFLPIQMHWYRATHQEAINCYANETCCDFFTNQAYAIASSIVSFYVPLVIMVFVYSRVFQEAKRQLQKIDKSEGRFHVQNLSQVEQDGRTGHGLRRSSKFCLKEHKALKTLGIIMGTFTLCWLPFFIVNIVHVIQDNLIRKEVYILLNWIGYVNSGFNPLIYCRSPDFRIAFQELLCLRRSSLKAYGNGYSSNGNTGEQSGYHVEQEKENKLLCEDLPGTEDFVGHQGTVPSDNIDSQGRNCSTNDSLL", "protocol": "as §1"}, "[3]": {"target": "T3, Bradykinin B1 (Homo sapiens, UniProt P46663)", "T3 construct": "gene BDKRB1", "T3 sequence (P46663 whole entry)": "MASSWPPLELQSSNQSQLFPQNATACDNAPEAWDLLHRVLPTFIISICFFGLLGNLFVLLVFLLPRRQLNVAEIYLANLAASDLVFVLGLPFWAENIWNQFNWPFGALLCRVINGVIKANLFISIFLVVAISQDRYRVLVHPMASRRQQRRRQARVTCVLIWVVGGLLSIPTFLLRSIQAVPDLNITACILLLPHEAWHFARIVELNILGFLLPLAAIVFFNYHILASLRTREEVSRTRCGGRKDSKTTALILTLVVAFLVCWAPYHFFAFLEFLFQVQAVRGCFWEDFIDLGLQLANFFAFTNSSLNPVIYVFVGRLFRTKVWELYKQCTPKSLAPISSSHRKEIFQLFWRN", "protocol": "as §1"}, "[4]": {"target": "T4, Calcium Channel N-Type (Rattus norvegicus, UniProt Q02294)", "T4 construct": "gene Cacna1b", "T4 sequence (Q02294 whole entry)": "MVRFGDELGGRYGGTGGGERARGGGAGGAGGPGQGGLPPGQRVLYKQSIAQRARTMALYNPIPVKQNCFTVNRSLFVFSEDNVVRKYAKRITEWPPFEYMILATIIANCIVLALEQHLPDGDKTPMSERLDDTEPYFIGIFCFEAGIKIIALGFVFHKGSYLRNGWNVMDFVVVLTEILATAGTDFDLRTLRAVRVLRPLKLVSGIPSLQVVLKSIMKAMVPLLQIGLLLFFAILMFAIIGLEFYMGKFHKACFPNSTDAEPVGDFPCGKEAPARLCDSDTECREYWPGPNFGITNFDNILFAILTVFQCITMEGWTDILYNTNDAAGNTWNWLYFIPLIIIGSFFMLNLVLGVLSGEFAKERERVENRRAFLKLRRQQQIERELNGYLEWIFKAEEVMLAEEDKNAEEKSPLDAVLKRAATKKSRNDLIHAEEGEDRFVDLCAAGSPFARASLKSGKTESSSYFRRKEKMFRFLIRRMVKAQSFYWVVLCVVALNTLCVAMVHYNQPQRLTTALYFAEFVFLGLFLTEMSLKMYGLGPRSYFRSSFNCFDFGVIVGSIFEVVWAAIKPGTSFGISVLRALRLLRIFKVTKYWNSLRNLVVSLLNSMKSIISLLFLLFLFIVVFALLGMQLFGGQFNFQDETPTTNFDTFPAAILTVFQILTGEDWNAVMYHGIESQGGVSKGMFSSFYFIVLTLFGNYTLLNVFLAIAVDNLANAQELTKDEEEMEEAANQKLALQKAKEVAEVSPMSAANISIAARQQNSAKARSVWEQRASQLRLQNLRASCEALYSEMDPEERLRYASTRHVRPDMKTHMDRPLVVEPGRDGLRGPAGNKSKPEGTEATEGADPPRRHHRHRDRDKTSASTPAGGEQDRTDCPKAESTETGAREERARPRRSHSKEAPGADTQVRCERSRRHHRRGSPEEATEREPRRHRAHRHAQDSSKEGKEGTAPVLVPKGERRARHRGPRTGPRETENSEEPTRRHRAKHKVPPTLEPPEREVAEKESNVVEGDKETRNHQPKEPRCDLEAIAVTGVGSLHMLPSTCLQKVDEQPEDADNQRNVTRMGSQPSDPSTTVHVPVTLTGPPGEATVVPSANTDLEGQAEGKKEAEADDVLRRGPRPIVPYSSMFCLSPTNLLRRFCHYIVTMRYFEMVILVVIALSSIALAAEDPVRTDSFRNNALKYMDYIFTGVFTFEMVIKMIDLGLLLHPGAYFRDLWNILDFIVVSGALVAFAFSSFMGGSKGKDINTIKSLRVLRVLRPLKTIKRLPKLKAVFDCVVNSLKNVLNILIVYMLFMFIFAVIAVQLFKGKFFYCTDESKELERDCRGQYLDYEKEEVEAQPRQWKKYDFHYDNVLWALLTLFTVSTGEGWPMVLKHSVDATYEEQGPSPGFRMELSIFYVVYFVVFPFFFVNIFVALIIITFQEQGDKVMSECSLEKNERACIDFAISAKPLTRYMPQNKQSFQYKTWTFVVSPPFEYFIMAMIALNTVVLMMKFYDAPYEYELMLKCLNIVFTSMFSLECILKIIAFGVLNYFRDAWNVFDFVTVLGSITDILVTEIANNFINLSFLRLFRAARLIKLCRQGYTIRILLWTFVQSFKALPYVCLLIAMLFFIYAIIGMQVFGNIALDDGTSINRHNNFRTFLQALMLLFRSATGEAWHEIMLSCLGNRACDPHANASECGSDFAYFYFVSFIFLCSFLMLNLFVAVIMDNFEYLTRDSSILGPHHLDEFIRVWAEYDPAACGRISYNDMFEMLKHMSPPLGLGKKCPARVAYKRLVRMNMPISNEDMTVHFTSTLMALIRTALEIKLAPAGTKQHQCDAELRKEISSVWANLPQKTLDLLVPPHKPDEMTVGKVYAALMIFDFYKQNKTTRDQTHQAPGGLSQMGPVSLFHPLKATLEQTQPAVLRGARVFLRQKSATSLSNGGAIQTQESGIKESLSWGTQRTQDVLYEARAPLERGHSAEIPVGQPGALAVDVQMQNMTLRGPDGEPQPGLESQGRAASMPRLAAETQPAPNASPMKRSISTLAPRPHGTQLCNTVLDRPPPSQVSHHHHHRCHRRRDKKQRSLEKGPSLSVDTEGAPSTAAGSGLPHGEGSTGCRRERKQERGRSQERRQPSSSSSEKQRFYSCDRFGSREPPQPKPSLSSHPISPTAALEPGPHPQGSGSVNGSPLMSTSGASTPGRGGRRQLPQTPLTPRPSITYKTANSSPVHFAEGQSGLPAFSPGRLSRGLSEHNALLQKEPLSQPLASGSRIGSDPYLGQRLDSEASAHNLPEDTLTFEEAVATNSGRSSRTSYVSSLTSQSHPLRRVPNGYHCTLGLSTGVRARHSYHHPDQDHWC", "protocol": "as §1"}, "[5]": {"target": "T5, Dopamine D3 (Homo sapiens, UniProt P35462)", "T5 construct": "gene DRD3", "protocol": "as §1"}, "[6]": {"target": "T6, Epidermal Growth Factor (EGF) (Homo sapiens, UniProt P00533)", "T6 construct": "gene EGFR", "protocol": "as §1"}, "[7]": {"target": "T7, G Protein-Coupled Receptor GPR103 (Homo sapiens, UniProt Q96P65)", "T7 construct": "gene QRFPR", "protocol": "as §1"}, "[8]": {"target": "T8, Glucocorticoid (Homo sapiens, UniProt P04150)", "T8 construct": "gene NR3C1", "protocol": "as §1"}, "[9]": {"target": "T9, Histamine H2 receptor (Homo sapiens, UniProt P25021)", "T9 construct": "gene HRH2", "T9 sequence (P25021 whole entry)": "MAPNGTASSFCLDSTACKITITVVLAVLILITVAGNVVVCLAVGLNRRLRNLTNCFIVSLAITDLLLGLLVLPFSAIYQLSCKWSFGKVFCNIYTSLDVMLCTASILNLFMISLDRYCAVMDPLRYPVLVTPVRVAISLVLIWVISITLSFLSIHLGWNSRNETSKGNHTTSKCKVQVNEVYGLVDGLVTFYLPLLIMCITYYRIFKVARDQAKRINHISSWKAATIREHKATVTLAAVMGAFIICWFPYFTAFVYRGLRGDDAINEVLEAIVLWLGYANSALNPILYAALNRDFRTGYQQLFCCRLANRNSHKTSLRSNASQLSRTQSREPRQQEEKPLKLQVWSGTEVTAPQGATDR", "protocol": "as §1"}, "[10]": {"target": "T10, Melatonin MT1 (Homo sapiens, UniProt P48039)", "T10 construct": "gene MTNR1A", "protocol": "as §1"}, "[11]": {"target": "T11, Neuropeptide Y Y1 (Homo sapiens, UniProt P25929)", "T11 construct": "gene NPY1R", "protocol": "as §1"}, "[12]": {"target": "T12, Opiate delta (OP1, DOP) (Homo sapiens, UniProt P41143)", "T12 construct": "gene OPRD1", "protocol": "as §1"}, "[13]": {"target": "T13, Prostanoid EP4 (Homo sapiens, UniProt P35408)", "T13 construct": "gene PTGER4", "protocol": "as §1"}, "[14]": {"target": "T14, Serotonin 5-HT1A (Homo sapiens, UniProt P08908)", "T14 construct": "gene HTR1A", "protocol": "as §1"}, "[15]": {"target": "T15, Serotonin 5-HT1B (Rattus norvegicus, UniProt P28564)", "T15 construct": "gene Htr1b", "T15 sequence (P28564 whole entry)": "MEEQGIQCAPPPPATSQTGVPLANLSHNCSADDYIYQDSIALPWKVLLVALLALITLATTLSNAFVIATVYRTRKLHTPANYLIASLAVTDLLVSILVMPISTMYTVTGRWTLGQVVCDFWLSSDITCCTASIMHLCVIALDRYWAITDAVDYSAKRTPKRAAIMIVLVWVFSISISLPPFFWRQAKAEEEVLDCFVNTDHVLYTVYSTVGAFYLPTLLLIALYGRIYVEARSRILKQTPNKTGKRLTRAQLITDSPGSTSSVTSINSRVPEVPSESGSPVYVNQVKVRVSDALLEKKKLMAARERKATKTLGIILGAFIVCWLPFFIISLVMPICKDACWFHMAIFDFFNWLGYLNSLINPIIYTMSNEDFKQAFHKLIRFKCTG", "protocol": "as §1"}, "[16]": {"target": "T16, Serotonin 5-HT4 (Cavia porcellus, UniProt O70528)", "T16 construct": "gene HTR4", "T16 sequence (O70528 whole entry)": "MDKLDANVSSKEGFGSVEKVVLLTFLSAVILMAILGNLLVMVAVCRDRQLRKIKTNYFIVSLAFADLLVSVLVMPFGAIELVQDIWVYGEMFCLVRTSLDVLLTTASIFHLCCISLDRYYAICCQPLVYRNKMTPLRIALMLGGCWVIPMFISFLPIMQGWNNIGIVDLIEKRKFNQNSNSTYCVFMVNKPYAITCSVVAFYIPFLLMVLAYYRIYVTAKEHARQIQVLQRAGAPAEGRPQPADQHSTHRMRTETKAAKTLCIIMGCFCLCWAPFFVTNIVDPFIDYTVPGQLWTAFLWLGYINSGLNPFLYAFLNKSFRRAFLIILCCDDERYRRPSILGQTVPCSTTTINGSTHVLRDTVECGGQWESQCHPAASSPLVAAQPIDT", "protocol": "as §1"}, "[17]": {"target": "T17, Serotonin 5-HT6 receptor (Homo sapiens, UniProt P50406)", "T17 construct": "gene HTR6", "protocol": "as §1"}, "[18]": {"target": "T18, Tachykinin NK1 (Homo sapiens, UniProt P25103)", "T18 construct": "gene TACR1", "protocol": "as §1"}, "[19]": {"target": "T19, Transporter, Serotonin (SERT) (Homo sapiens, UniProt P31645)", "T19 construct": "gene SLC6A4", "protocol": "as §1"}, "[20]": {"target": "T20, α1D-Adrenergic receptor (Homo sapiens, UniProt P25100)", "T20 construct": "gene ADRA1D", "T20 sequence (P25100 whole entry)": "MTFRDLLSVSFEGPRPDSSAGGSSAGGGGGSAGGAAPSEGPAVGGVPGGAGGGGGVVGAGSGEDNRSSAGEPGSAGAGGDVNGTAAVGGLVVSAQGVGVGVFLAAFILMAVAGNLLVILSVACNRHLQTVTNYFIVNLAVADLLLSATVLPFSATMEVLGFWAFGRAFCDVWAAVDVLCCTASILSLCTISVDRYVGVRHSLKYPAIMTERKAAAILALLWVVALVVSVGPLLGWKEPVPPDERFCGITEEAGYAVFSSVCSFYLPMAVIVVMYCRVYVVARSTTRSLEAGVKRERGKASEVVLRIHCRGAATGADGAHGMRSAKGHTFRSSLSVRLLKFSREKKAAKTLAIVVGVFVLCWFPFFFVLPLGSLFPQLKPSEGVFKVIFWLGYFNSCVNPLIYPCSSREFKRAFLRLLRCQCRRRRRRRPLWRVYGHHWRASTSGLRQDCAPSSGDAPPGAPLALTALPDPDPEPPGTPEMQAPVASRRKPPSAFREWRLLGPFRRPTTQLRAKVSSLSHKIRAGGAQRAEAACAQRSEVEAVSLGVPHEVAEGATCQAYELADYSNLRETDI", "protocol": "as §1"}, "[21]": {"target": "T21, α2A-Adrenergic receptor (Homo sapiens, UniProt P08913)", "T21 construct": "gene ADRA2A", "protocol": "as §1"}}}
{"smiles": "Cc1ccc2c(c1)c1c(n2CCc2ccc(C)nc2)CCN(C)C1", "note": "[Dimebon, 2,3,4,5-Tetrahydro-2,8-dimethyl-5-(2-(6-methyl-3-pyridyl)ethyl)-1H-pyrido(4,3-b)indole]", "values": [{"measurement": "inhibition at 10 µM", "setting": "[1]", "result": -3, "unit": "%"}, {"measurement": "inhibition at 10 µM", "setting": "[2]", "result": 14, "unit": "%"}, {"measurement": "inhibition at 10 µM", "setting": "[3]", "result": -9, "unit": "%"}, {"measurement": "inhibition at 10 µM", "setting": "[4]", "result": 0, "unit": "%"}, {"measurement": "inhibition at 10 µM", "setting": "[5]", "result": 73, "unit": "%"}, {"measurement": "inhibition at 10 µM", "setting": "[6]", "result": 1, "unit": "%"}, {"measurement": "inhibition at 10 µM", "setting": "[7]", "result": 4, "unit": "%"}, {"measurement": "inhibition at 10 µM", "setting": "[8]", "result": 3, "unit": "%"}, {"measurement": "inhibition at 10 µM", "setting": "[9]", "result": 96, "unit": "%"}, {"measurement": "inhibition at 10 µM", "setting": "[10]", "result": 3, "unit": "%"}, {"measurement": "inhibition at 10 µM", "setting": "[11]", "result": 4, "unit": "%"}, {"measurement": "inhibition at 10 µM", "setting": "[12]", "result": 0, "unit": "%"}, {"measurement": "inhibition at 10 µM", "setting": "[13]", "result": 1, "unit": "%"}, {"measurement": "inhibition at 10 µM", "setting": "[14]", "result": 22, "unit": "%"}, {"measurement": "inhibition at 10 µM", "setting": "[15]", "result": 48, "unit": "%"}, {"measurement": "inhibition at 10 µM", "setting": "[16]", "result": 17, "unit": "%"}, {"measurement": "inhibition at 10 µM", "setting": "[17]", "result": 101, "unit": "%"}, {"measurement": "inhibition at 10 µM", "setting": "[18]", "result": 20, "unit": "%"}, {"measurement": "inhibition at 10 µM", "setting": "[19]", "result": -7, "unit": "%"}, {"measurement": "inhibition at 10 µM", "setting": "[20]", "result": 95, "unit": "%"}, {"measurement": "inhibition at 10 µM", "setting": "[21]", "result": 97, "unit": "%"}]}
